According to patent publication US20200399238A1, “THERAPEUTIC AURONES” (MIDDLE TENNESSEE STATE UNIVERSITY, priority 2016, published 2020):
Like-named read-outs stand apart in the source and are kept apart here.

How the values were obtained:
[1] = test system: Trypanosoma brucei brucei 427 cells; assay: T. brucei culture and assay (PrestoBlue); format: cell-based; settings: for IC50: mean of 2(+) independent trials, read-out: IC50 T. brucei
[2] = test system: Leishmania amazonensis promastigotes expressing beta-lactamase; assay: microbe, parasite or virus in culture; format: cell-based; settings: for IC50: Leishmania amazonensis
Protocol: Leishmania amazonensis promastigotes expressing beta-lactamase (Buckner et al., Am. J. Trop. Med. Hyg. 72 (2005) 600-605. doi:72/5/600 [pii]) were cultured in RPMI supplemented with 10% fetal calf serum and 1% pen-strep-glut solution (Sigma) at 27° C. Stationary phase promastigotes were adjusted in fresh media, treated with compounds, and incubated at 37° C. At 24 hours, 100 uL of cultures was added to 50 uL of the CellTiter Glo® solution. Luminescence readings were taken with a spectrophotometer and used to calculate inhibition.

[3] = test system: rat skeletal muscle cell line, L6; assay: cells; format: cell-based
Protocol: Cells were maintained in high glucose DMEM obtained from HyClone Laboratories (Logan, Utah) and supplemented with FCS and P/S at the same concentrations used for parasite culture. Cells were passaged every 3-4 days and maintained in a 37° C. humidified incubator in an atmosphere of 5% CO2. For assays. cells were detached, counted using a hemocytometer, and adjusted using fresh media to deliver 5×10^3 cells per well (90 μL) in black walled, flat clear bottom 96-well microtiter plates. After 3 h incubation for attachment, compounds diluted in culture medium were added (10 μL) to triplicate wells. Positive controls (cells treated with podophyllotoxin (Sigma, St. Louis, Mo.)), negative controls (untreated cells), solvent controls (DMSO) and media blanks were included on each plate. Following incubation for 71.5 h, 11 μL of PrestoBlue was added into each well.

[4] = test system: Trypanosoma cruzi Tulahuen cells expressing beta-galactosidase; assay: T. cruzi intracellular assay (beta-galactosidase, L6 host cells); settings: for IC50: Trypanosoma cruzi, TULAHUEN
Protocol: Trypanosoma cruzi Tulahuen cells expressing beta-galactosidase (Buckner et al., Antimicrob. Agents Chemother. 40 (1996) 2592-2597) were cultured using the L6 cell line as a host cell. Adherent L6 cultures were infected with freshly burst T. cruzi trypomastigotes. Approximately 4-6 days later freshly burst trypomastigotes were collected and used to maintain cultures For assays, trypomastigotes were centrifuged to a loose pellet and incubated for 3 hours to allow the trypomastigote forms to swim out of the pellet. Cells were adjusted for addition to intracellular or extracellular assays. […] For intracellular assays, cells were added to adherent L6 cells using an infection ratio of 1:1 and immediately treated with compounds. At 96 hours incubations, a solution containing chlorophenol-red-B-D-beta-galactopyranosidase (Sigma) and a lysis agent were added. After an additional 2 hour incubation, a spectrophotometer was used to quantify the resulting color change (or lack thereof) which was used to calculate inhibition.
The percentage of cell inhibition was calculated using the formula: Percent Inhibition=1−((Treated Sample value−Medium only value)/(Untreated value−Medium only value))×100. Results are expressed as the mean of two or more independent trials.

[5] = Table 2, L6 IC50 / L. amazonensis IC50
[6] = Rattus norvegicus, Table 1, read-out: IC50 Toxicity (L6)
[7] = Table 2, L6 mammalian cells, read-out: IC50 Toxicity (L6)
[8] = Table 1, intracellular T. cruzi IC50
[9] = Table 2, L6 IC50 / T. cruzi IC50 (intracellular assay)
[10] = read-out: IC50 T. cruzi, Table 1, intracellular assay, mean of 2(+) trials (^c one trial)
[11] = read-out: IC50 T. cruzi, Table 2, intracellular assay, mean of 2(+) independent trials
[12] = Table 2, L6 IC50 / T. brucei IC50
[13] = Table 3C, estimated from highest L6 dose tested where L6 IC50 not reached

Compound	IC50 ([1]; Trypanosoma brucei, Table 1)	IC50 ([2]; read-out: IC50 L. amaz.)	Selectivity L6/La ([2]; Table 1)	Selectivity L6/La [2, 5]	IC50 [3, 6]	IC50 [3, 7]	IC50 [4, 10]	IC50 [4, 11]	also measured
Cc1ccc(/C=C2\Oc3ccccc3C2=O)cc1 [Aurone 9065, (Z)-2-(4-methylbenzylidene)benzofuran-3(2H)-one]	> 50 µM	1.37 µM	>72.99	>72.99	> 100 µM	> 100 µM	8.63 µM	8.63 µM	IC50 ([1]; Table 2): > 50 µM; IC50 ([3]; Rattus norvegicus, Table 3A, weighted means of two or more independent trials, read-out: IC50 L6): > 100 µM; Selectivity L6/Tc [4, 8]: >11.59; Selectivity L6/Tc [4, 9]: >11.59; Selectivity L6/TC-I ([4]; Table 3A, estimated from highest L6 dose tested where no L6 IC50): >11.59; IC50 ([4]; read-out: IC50 TC-I, Table 3A, weighted means of two or more independent trials): 8.63 µM
CC(=O)N1/C(=C\c2ccccc2O)C(=O)c2ccccc21 [AA3A]	> 50 µM	< 1 µM			> 200 µM		> 50 µM	> 50 µM	
O=C1/C(=C/c2ccc([N+](=O)[O-])cc2)Oc2ccccc21 [Aurone 2010]	40.7 µM	14.5 µM			249 µM		20 µM	20 µM	
O=C1/C(=C/c2cccc([N+](=O)[O-])c2)Oc2ccccc21 [Aurone 2015]	29.2 µM	1.71 µM			226 µM		22.6 µM	22.6 µM	
O=C1/C(=C/c2ccc(/C=C3\Oc4ccccc4C3=O)cc2)Oc2ccccc21 [Aurone 6617, (2Z,2′Z)-2,2′-(1,4-phenylenebis(methanylylidene))bis(benzofuran-3(2H)-one)]	35.4 µM	3.62 µM	>110.50	>110.50	> 400 µM	> 400 µM	39.1 µM	39.1 µM	Selectivity L6/Tb ([1]; Table 1): >11.31; Selectivity L6/Tb [1, 12]: >11.31; Selectivity L6/Tb [1, 13]: >11.31; IC50 ([3]; Rattus norvegicus, Table 3C, weighted means of two or more independent trials, read-out: IC50 L6): > 400 µM; Selectivity L6/Tc [4, 8]: >10.22; Selectivity L6/Tc [4, 9]: >10.22; Selectivity L6/TC-I [4, 13]: >10.22; IC50 ([4]; read-out: IC50 TC-I, Table 3C, intracellular T. cruzi, weighted means of two or more independent trials): 39.1 µM
O=C1/C(=C/c2ccc(Br)cc2)Oc2ccccc21 [Aurone 2009]	41.7 µM	10.3 µM			> 100 µM		11.4 µM		
O=C1/C(=C/c2ccc(-c3ccccc3)cc2)Oc2ccccc21 [Aurone 2018]	> 50 µM	7.22 µM			298 µM		34.4 µM	34.4 µM	
COc1cc(/C=C2\Oc3ccccc3C2=O)cc(OC)c1OC [Aurone 2002]	> 50 µM	12.6 µM			> 100 µM		> 50 µM		
CC(=O)N1/C(=C\c2ccc[nH]2)C(=O)c2ccccc21 [AA5A]	26.3 µM	< 1 µM			39.8 µM		33.5 µM	33.5 µM	
COc1ccc(/C=C2\Oc3cc(O)ccc3C2=O)cc1 [Aurone 6620, (Z)-6-hydroxy-2-(4-methoxybenzylidene)benzofuran-3(2H)-one]	< 1 µM	< 1 µM	>100	>100	> 100 µM	> 100 µM	35.1 µM	35.1 µM	Selectivity L6/Tb ([1]; Table 1): >100; Selectivity L6/Tb [1, 12]: >100; IC50 ([1]; Table 2): < 1 µM; IC50 ([2]; read-out: IC50 L. amaz. (footnote c: value obtained from one trial)): < 1 µM; Selectivity L6/Tc [4, 8]: >2.85; Selectivity L6/Tc [4, 9]: >2.85
COc1ccc(/C=C2\Oc3cc(O)ccc3C2=O)c(OC)c1OC [Aurone 2912, (Z)-6-hydroxy-2-(2,3,4-trimethoxybenzylidene)benzofuran-3(2H)-one]	> 50 µM	25.7 µM			> 100 µM		> 50 µM		
O=C1/C(=C/c2ccc(C(F)(F)F)cc2)Oc2cc(O)ccc21 [Aurone 2909, (Z)-6-hydroxy-2-(4-(trifluoromethyl)benzylidene)benzofuran-3(2H)-one]	> 50 µM	3.97 µM	>25.19	>25.19	> 100 µM	> 100 µM	> 50 µM	> 50 µM	IC50 ([1]; Table 2): > 50 µM
O=C1/C(=C/c2cccs2)Nc2ccccc21 [AA9]	> 50 µM	< 1 µM			> 200 µM		> 50 µM	> 50 µM	
